Measurements from patent US7074789B2, “Kinase inhibitors” (Amgen Inc., priority 1999, dated 2006).
Values joined by “and” are separate entries in the source; they are usually repeats but may differ in a detail not shown here. Equal values may be shown once.

How the values were obtained:
Format in all cases: biochemical
IGFR-1 = target: T1, IGFR-1 (Homo sapiens, UniProt P08069); experiment: Kinase inhibition assay, IGFR-1 (Table 2); conditions: Table 2, kinase inhibition class
T1 construct: Kinases are expressed as either kinase domains or full length constructs; made in house

PDGFRB = target: T2, PDGFRB (Homo sapiens, UniProt P09619); experiment: Kinase inhibition assay (33P transfer), PDGFRB; conditions: read-out: PDGFRB-1
T2 construct: Kinases are expressed as either kinase domains or full length constructs; made in house

Kdr = target: T3, Kdr (Homo sapiens, UniProt P35968); experiment: Kinase inhibition assay (33P transfer), Kdr; conditions: read-out: KDR-1
T3 construct: Kinases are expressed as either kinase domains or full length constructs; made in house
How it was run: (§1)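 Each kinase, expressed as a GST- or polyHis-tagged domain or full-length protein, phosphorylated plate-attached poly(Glu,Tyr) 4:1 or poly(Arg,Ser) 3:1 using 33P-ATP. Bound radioactivity was measured by scintillation after a 0.5% phosphoric acid wash.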

ErbB2 = target: T4, ErbB2 (Homo sapiens, UniProt P04626); experiment: Kinase inhibition assay (33P transfer), ErbB2; conditions: read-out: ErbB2-2
T4 construct: Kinases are expressed as either kinase domains or full length constructs; made in house
How it was run: (§2)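 GST/His-fusion kinases, E. coli or High Five expressed, affinity purified; 33P-ATP, plate-coated poly(Glu,Tyr) 4:1 or poly(Arg,Ser) 3:1; 0.5% H3PO4 wash, scintillant, LSC.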

AKT = target: T5, AKT (Homo sapiens, UniProt Q9Y243); experiment: Kinase inhibition assay (33P transfer), AKT; conditions: Table 2, kinase inhibition class; read-out: AKT3-1
T5 construct: Kinases are expressed as either kinase domains or full length constructs; made in house
How it was run: as §1

Zap-70 = target: T6, Zap-70 (Homo sapiens, UniProt P43403); experiment: Kinase inhibition assay (33P transfer), Zap-70; conditions: read-out: Zap-1
T6 construct: Kinases are expressed as either kinase domains or full length constructs; made in house
T6 sequence (P43403 1-619): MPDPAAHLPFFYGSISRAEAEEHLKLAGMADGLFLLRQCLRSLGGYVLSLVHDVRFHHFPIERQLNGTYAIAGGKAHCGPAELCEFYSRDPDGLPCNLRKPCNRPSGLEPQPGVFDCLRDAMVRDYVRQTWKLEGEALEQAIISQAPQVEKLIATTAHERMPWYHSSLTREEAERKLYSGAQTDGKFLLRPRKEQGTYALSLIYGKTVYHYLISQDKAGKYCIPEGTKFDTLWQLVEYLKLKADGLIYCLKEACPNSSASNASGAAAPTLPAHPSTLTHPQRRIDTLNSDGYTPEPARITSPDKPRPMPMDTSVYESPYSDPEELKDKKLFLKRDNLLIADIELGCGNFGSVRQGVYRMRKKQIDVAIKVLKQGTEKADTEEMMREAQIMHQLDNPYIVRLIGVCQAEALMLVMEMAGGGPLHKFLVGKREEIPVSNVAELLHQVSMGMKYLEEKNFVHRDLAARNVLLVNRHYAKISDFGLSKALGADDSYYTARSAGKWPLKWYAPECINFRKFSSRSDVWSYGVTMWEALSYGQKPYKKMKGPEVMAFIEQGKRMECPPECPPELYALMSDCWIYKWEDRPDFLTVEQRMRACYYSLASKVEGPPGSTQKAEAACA
How it was run: as §1

EGFR = target: T7, EGFR (Homo sapiens, UniProt P00533); experiment: Kinase inhibition assay (33P transfer), EGFR; conditions: Table 2, kinase inhibition class; read-out: EGFR-1
T7 construct: Kinases are expressed as either kinase domains or full length constructs; made in house
How it was run: as §2

c-Met = target: T8, c-Met (Homo sapiens, UniProt P08581); experiment: Kinase inhibition assay (33P transfer), c-Met; conditions: Table 2, kinase inhibition class; read-out: Met-1
T8 construct: Kinases are expressed as either kinase domains or full length constructs; made in house
How it was run: as §2

Lck = target: T9, Lck (Homo sapiens, UniProt P06239); experiment: Kinase inhibition assay (33P transfer), Lck; conditions: read-out: Lck-1
T9 construct: Kinases are expressed as either kinase domains or full length constructs; made in house
How it was run: as §1

Itk = target: T10, Itk (Homo sapiens, UniProt Q08881); experiment: Kinase inhibition assay (33P transfer), Itk; conditions: read-out: Itk-1
T10 construct: Kinases are expressed as either kinase domains or full length constructs; made in house
T10 sequence (Q08881 1-620): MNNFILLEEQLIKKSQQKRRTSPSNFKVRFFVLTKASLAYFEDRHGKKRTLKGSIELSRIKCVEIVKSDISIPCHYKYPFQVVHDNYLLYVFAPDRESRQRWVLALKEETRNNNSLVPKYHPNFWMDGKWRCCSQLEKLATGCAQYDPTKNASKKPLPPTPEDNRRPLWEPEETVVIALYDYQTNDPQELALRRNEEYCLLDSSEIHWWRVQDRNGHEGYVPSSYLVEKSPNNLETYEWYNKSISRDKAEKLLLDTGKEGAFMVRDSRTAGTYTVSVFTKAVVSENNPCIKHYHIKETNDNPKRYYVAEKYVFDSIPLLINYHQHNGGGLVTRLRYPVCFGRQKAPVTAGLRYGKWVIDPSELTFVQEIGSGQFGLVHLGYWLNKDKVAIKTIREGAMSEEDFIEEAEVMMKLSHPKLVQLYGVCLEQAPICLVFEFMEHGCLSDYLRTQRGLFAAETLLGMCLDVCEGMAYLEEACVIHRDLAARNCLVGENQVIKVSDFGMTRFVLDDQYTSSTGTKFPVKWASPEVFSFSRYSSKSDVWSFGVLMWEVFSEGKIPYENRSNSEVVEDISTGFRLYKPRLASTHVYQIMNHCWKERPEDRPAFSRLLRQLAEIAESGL
How it was run: as §2

T2 sequence (P09619 33-1106, species assumed): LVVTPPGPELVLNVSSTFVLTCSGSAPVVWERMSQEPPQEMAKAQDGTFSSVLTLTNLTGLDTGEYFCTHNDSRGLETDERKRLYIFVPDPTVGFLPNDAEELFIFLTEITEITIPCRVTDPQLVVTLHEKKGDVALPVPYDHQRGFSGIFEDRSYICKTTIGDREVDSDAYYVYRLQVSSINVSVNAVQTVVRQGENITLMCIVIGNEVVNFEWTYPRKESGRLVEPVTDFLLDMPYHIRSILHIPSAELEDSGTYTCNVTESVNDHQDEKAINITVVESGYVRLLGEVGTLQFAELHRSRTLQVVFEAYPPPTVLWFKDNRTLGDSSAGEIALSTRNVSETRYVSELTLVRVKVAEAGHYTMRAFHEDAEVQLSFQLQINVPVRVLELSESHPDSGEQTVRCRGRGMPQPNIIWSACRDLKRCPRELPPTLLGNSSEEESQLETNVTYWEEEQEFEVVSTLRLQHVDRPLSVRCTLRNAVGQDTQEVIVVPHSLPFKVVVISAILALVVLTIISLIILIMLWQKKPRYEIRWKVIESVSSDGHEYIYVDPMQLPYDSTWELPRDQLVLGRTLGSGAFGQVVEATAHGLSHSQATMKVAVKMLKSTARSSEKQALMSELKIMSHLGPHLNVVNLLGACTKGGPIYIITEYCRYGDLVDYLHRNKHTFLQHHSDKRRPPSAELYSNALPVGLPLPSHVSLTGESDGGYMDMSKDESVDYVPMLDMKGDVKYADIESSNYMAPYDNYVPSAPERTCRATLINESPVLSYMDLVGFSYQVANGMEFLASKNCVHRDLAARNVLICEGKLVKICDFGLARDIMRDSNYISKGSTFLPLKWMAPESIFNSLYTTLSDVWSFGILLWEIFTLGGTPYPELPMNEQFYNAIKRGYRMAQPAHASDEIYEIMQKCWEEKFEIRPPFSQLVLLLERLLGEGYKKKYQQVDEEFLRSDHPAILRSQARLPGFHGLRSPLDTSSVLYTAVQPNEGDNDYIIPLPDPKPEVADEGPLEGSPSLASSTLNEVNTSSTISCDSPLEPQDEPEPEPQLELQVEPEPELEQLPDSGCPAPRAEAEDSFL
T9 sequence (P06239 whole entry, species assumed, the tested form may be a part): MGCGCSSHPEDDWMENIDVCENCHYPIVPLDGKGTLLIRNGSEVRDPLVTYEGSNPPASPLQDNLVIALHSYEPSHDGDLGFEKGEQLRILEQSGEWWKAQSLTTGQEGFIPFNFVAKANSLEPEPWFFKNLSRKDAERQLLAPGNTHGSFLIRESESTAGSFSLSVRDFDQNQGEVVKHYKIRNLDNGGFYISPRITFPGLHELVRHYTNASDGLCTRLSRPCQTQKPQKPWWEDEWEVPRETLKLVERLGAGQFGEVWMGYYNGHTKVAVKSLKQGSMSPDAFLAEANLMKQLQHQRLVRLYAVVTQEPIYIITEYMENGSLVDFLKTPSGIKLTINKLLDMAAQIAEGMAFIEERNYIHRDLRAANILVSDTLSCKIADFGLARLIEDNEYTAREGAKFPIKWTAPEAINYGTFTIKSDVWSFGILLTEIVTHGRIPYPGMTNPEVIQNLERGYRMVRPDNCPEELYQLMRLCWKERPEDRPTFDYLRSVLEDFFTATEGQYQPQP
T3 sequence (P35968 20-1356, species assumed): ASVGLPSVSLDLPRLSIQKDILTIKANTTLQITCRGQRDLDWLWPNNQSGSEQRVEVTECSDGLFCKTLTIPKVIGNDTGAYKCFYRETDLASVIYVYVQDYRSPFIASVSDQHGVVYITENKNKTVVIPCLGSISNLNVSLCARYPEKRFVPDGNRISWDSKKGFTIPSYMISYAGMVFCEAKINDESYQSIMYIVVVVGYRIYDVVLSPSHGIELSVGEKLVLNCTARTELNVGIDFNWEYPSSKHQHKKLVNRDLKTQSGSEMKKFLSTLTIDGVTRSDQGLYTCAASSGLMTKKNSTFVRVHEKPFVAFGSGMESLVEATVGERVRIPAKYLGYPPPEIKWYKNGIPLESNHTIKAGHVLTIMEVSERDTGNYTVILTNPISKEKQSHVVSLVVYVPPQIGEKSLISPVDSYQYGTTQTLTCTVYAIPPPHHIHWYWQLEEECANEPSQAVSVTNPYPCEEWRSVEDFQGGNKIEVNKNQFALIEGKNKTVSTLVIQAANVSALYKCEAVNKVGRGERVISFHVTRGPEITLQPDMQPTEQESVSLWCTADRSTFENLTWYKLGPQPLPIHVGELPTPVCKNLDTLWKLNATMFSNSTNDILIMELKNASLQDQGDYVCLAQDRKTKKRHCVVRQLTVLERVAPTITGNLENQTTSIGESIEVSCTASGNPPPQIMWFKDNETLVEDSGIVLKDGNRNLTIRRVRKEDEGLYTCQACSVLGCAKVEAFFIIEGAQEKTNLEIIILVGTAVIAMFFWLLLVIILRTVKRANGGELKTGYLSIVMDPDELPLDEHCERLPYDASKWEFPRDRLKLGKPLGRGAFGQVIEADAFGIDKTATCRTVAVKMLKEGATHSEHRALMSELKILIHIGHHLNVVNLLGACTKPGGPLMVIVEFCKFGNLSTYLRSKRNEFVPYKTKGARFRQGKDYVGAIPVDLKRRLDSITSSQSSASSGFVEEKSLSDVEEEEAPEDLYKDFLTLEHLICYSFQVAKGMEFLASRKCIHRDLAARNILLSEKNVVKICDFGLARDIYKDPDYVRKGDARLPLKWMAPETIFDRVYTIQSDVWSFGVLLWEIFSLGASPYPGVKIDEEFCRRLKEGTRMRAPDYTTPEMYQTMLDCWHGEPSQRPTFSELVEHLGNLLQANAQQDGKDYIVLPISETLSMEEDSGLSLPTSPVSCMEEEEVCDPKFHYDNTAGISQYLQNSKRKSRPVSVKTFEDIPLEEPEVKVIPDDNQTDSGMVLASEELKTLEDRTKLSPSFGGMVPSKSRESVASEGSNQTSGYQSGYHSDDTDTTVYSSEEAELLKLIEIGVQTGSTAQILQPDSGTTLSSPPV
T5 sequence (Q9Y243 whole entry, the tested form may be a part): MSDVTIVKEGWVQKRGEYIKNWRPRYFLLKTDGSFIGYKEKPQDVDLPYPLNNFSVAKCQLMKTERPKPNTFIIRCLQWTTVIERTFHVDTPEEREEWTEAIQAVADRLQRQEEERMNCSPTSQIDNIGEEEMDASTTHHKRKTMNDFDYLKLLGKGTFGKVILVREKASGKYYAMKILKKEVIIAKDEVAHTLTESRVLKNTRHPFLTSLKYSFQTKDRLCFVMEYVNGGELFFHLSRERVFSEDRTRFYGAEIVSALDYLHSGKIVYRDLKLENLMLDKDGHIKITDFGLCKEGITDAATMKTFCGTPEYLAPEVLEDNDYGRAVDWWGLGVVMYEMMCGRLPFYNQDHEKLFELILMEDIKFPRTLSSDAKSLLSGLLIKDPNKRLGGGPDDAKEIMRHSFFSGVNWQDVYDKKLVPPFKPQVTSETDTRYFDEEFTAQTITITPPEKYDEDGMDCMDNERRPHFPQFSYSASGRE
T8 sequence (P08581 25-1390): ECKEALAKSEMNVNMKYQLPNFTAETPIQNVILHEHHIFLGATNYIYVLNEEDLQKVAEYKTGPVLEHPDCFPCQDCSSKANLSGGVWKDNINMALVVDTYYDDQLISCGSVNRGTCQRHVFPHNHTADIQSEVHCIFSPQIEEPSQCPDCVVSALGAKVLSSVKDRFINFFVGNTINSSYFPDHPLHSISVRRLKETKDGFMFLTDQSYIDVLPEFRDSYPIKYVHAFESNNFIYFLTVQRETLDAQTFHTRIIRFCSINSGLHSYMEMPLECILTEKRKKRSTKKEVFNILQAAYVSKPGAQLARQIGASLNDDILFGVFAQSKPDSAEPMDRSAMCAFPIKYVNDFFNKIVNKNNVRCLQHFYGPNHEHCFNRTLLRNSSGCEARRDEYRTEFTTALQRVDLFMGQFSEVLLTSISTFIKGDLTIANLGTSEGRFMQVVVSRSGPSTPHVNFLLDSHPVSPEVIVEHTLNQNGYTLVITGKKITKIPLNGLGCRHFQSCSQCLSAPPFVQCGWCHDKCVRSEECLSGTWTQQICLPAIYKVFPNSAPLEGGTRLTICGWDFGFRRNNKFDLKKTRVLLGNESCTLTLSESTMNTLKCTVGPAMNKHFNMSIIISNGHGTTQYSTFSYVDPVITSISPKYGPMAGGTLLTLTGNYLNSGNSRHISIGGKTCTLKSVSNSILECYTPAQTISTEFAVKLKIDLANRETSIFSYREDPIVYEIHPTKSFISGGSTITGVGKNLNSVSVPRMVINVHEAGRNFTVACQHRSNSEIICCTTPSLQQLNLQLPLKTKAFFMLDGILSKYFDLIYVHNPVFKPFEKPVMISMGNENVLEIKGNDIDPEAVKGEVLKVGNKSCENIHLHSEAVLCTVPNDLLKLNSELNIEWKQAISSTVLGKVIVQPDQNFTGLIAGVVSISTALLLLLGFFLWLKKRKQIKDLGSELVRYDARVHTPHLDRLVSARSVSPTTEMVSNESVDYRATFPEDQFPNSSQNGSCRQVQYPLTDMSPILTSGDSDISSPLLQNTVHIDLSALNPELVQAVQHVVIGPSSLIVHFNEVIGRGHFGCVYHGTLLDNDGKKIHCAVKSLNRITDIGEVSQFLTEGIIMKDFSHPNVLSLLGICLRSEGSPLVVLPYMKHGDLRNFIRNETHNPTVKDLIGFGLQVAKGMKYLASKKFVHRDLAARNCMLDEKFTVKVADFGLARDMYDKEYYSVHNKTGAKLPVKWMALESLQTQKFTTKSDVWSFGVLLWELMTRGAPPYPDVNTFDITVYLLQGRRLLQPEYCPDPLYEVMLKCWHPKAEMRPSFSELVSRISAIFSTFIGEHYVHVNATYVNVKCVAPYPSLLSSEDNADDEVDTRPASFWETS

IC50 (IGFR-1) [µM]	IC50 (PDGFRB) [µM]	IC50 (Kdr) [µM]	IC50 (ErbB2)	IC50 (AKT) [µM]	IC50 (Zap-70) [µM]	IC50 (EGFR) [µM]	IC50 (c-Met) [µM]	IC50 (Lck) [µM]	IC50 (Itk) [µM]	Structure (SMILES)
> 9.35	0.831 to 4.98	< 0.831	> 9.35 µM	> 9.35	> 9.35	> 9.35	> 9.35	7.27 to 9.35	> 9.35	COc1ccc(CNc2nc3ccccc3n2-c2ncnc(Nc3cccc(CC(=O)O)c3)n2)cc1 [Compound 534]
> 11.3	> 11.3	> 11.3	> 11.3 µM	> 11.3	> 11.3	1.01 to 6.03	> 11.3	> 11.3	> 11.3	CN(c1cccc(Cl)c1)c1ncnc(Nc2ccc(F)c(C(F)(F)F)c2)n1 [Compound 742]
> 11.6	6.21 to 9.06	> 11.6	> 11.6 µM	> 11.6	> 11.6	> 11.6	> 11.6	> 11.6	> 11.6	COc1ccc(Nc2ncnc(NCCCN3CCCCC3C)n2)cc1OC (centres unmarked) [Compound 782]
1.05 to 6.29	1.05 to 6.29	6.29 to 9.18	> 11.8 µM	> 11.8	> 11.8	1.05 to 6.29	> 11.8	1.05 to 6.29	> 11.8	COc1cc(Nc2ncnc(NCCc3ccccc3)n2)cc(OC)c1OC [Compound 628]
6.24 to 9.1	< 1.04	1.04 to 6.24	< 1.04 µM	1.04 to 6.24	> 11.7	< 1.04	< 1.04	1.04 to 6.24	1.04 to 6.24	Cc1ccc2c(c1)CCCN2c1ncnc(Nc2cccc(-c3cnco3)c2)n1 [Compound 774]
> 7.93	> 7.93	> 7.93	4.23 to 6.17 µM	> 7.93	> 7.93	> 7.93	6.17 to 7.93	> 7.93	> 7.93	COc1cc(Nc2ncnc(-n3c(NCc4ccc(OC(F)(F)F)cc4)nc4ccccc43)n2)cc(OC)c1OC [Compound 571]
> 9.65	> 9.65	< 0.857	> 9.65 µM	> 9.65	> 9.65	> 9.65	> 9.65	> 9.65	> 9.65	COC(=O)Cc1cccc(Nc2ncnc(-n3c(NCc4ccccn4)nc4ccccc43)n2)c1 [Compound 547]
> 14.2	> 14.2	> 14.2	1.26 to 7.56 µM	> 14.2	> 14.2	1.26 to 7.56	> 14.2	> 14.2	> 14.2	Nc1ncnc(Nc2ccc3c(cnn3Cc3ccccc3)c2)n1 [Compound 665]
0.812 to 4.87	0.812 to 4.87	0.812 to 4.87	0.812 to 4.87 µM	> 9.14	> 9.14	< 0.812	4.87 to 7.11	< 0.812	> 9.14	COc1cc(Nc2ncnc(NC3CC3c3ccccc3)n2)cc(OC)c1OCCN1CCOCC1 (centres unmarked) [Compound 563]
0.925 to 5.55	0.925 to 5.55	0.925 to 5.55	< 0.925 µM	8.09 to 10.4	5.55 to 8.09	< 0.925	0.925 to 5.55	0.925 to 5.55	0.925 to 5.55	N#CCc1ccc(Nc2ncnc(Nc3ccc4c(cnn4Cc4ccccc4)c3)n2)cc1 [Compound 731]
8.38 to 10.8	> 10.8	8.38 to 10.8	> 10.8 µM	> 10.8	> 10.8	0.958 to 5.75	8.38 to 10.8	> 10.8	8.38 to 10.8	COC(=O)c1ccc(-c2cc(Nc3ncnc(Nc4ccc(CO)cc4)n3)[nH]n2)cc1 [Compound 989]
> 12.1	6.43 to 9.37	1.07 to 6.43	1.07 to 6.43 µM	> 12.1	> 12.1	< 1.07	1.07 to 6.43	6.43 to 9.37	> 12.1	Cc1ccc2c(c1)CCCN2c1ncnc(Nc2ccc3c(c2)C(=O)OC3)n1 [Compound 763]
> 13	> 13	6.91 to 10.1	> 13 µM	> 13	> 13	> 13	> 13	> 13	> 13	COc1ccc(N(C)c2ncnc(-n3c(N)nc4ccccc43)n2)cc1 [Compound 663]
> 8.8	> 8.8	0.782 to 4.69	4.69 to 6.84 µM and 0.782 to 4.69 µM	> 8.8	> 8.8	4.69 to 6.84	6.84 to 8.8	0.782 to 4.69	> 8.8	COc1cc(Nc2ncnc(-n3c(NCc4ccc(C)cc4C)nc4ccccc43)n2)cc(OC)c1OC [Compound 584]
< 1.11	1.11 to 6.68	1.11 to 6.68	1.11 to 6.68 µM	1.11 to 6.68	> 12.5	1.11 to 6.68	1.11 to 6.68	1.11 to 6.68	1.11 to 6.68	COc1cccc(Nc2ncnc(Nc3cc(-c4ccccc4)n[nH]3)n2)c1 [Compound 1011]
< 0.966	8.45 to 10.9	5.79 to 8.45	0.966 to 5.79 µM	> 10.9	> 10.9	< 0.966	5.79 to 8.45	0.966 to 5.79	8.45 to 10.9	COC(=O)Cc1cccc(Nc2ncnc(Nc3cccc(Br)c3)n2)c1 [Compound 540]
> 13.2	> 13.2	> 13.2	> 13.2 µM	> 13.2	> 13.2	< 1.17	> 13.2	> 13.2	> 13.2	COc1ccc(Nc2ncnc(N(C)c3cccc(Cl)c3)n2)cc1 [Compound 743]
> 9.08	> 9.08	< 0.807	> 9.08 µM	> 9.08	> 9.08	> 9.08	> 9.08	> 9.08	> 9.08	COC(=O)Cc1cccc(Nc2ncnc(-n3c(NCc4ccc(OC)cc4)nc4ccccc43)n2)c1 [Compound 548]
0.836 to 5.02	0.836 to 5.02	0.836 to 5.02	0.836 to 5.02 µM	7.31 to 9.4	5.02 to 7.31	< 0.836	0.836 to 5.02	0.836 to 5.02	5.02 to 7.31	c1ccc(Cn2ncc3cc(Nc4ncnc(Nc5ccc(N6CCOCC6)cc5)n4)ccc32)cc1 [Compound 729]
> 8.01	< 0.712	< 0.712	> 8.01 µM	> 8.01	> 8.01	4.27 to 6.23	> 8.01	< 0.712	> 8.01	COc1cc(Nc2ncnc(-c3cccnc3NCc3ccc(F)cc3)n2)cc(OC)c1OCCN1CCOCC1 [Compound 564]
